In the kinase profiling compilation of Christmann-Franck et al. (2016):

Columns and labels:
Assay in all cases: split-luciferase competition binding
[1] = molecular target: AKT1 (human) (UniProt P31749); conditions: compound 10.0 µM
[2] = molecular target: AKT2 (human) (UniProt P31751); conditions: compound 10.0 µM
[3] = molecular target: AKT3 (human) (UniProt Q9Y243); conditions: compound 10.0 µM
[4] = molecular target: AURKA (human) (UniProt O14965); conditions: compound 10.0 µM
[5] = molecular target: AURKB (human) (UniProt Q96GD4); conditions: compound 10.0 µM
[6] = molecular target: AURKC (human) (UniProt Q9UQB9); conditions: compound 10.0 µM
[7] = molecular target: DMPK (human) (UniProt Q09013); conditions: compound 10.0 µM
DMPK (human), sequence (Q09013 whole entry, looked up): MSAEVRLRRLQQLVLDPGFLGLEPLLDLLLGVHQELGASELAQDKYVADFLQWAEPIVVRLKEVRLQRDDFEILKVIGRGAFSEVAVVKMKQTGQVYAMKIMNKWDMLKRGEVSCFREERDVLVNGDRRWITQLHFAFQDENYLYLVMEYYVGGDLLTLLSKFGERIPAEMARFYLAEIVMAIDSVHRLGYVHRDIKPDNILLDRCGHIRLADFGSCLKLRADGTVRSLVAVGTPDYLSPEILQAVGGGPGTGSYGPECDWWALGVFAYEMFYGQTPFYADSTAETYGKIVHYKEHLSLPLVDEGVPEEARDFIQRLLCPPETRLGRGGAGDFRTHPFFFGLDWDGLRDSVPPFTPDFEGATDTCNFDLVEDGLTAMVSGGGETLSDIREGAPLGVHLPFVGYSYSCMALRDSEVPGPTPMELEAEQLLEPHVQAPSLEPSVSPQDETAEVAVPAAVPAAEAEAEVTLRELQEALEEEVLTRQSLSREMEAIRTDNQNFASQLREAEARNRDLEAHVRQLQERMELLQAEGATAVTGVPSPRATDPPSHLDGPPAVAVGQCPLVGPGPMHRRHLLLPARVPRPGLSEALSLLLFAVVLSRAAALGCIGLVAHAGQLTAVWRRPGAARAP

[8] = molecular target: PDPK1 (human) (UniProt O15530); conditions: compound 10.0 µM
[9] = molecular target: PKN1 (human) (UniProt Q16512); conditions: compound 10.0 µM
PKN1 (human), sequence (Q16512 whole entry, looked up): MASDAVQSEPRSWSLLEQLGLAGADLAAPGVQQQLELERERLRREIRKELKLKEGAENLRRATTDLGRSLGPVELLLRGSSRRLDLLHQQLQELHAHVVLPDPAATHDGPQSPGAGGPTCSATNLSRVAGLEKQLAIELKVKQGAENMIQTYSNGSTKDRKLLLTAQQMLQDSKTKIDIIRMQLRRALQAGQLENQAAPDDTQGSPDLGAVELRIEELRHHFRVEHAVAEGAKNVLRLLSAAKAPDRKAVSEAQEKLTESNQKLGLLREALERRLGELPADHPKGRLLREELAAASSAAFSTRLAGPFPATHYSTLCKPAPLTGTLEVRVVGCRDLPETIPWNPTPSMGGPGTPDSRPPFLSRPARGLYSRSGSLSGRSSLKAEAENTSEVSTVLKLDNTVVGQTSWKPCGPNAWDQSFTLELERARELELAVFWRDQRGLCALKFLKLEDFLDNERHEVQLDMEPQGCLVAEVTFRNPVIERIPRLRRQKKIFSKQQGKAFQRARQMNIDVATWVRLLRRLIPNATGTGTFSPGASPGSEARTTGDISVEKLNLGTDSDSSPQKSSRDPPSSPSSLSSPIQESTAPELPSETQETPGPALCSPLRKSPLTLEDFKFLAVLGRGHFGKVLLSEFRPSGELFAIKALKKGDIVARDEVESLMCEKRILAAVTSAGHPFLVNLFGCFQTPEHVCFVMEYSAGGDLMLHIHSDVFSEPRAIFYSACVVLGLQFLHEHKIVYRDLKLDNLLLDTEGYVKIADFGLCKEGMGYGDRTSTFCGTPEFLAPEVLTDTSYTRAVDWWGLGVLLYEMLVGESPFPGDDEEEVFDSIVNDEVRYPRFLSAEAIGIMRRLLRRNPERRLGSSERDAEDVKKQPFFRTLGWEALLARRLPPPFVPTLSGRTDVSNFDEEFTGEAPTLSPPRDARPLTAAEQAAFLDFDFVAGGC

[10] = test system: PRKACA (mouse); conditions: compound 10.0 µM; accession and sequence are those of the human protein
[11] = molecular target: PRKACB (human) (UniProt P22694); conditions: compound 10.0 µM
[12] = molecular target: PRKCD (human) (UniProt Q05655); conditions: compound 10.0 µM
[13] = molecular target: PRKCE (human) (UniProt Q02156); conditions: compound 10.0 µM
[14] = molecular target: PRKCG (human) (UniProt P05129); conditions: compound 10.0 µM
[15] = molecular target: PRKCH (human) (UniProt P24723); conditions: compound 10.0 µM
[16] = molecular target: PRKCI (human) (UniProt P41743); conditions: compound 10.0 µM
PRKCI (human), sequence (P41743 whole entry, looked up): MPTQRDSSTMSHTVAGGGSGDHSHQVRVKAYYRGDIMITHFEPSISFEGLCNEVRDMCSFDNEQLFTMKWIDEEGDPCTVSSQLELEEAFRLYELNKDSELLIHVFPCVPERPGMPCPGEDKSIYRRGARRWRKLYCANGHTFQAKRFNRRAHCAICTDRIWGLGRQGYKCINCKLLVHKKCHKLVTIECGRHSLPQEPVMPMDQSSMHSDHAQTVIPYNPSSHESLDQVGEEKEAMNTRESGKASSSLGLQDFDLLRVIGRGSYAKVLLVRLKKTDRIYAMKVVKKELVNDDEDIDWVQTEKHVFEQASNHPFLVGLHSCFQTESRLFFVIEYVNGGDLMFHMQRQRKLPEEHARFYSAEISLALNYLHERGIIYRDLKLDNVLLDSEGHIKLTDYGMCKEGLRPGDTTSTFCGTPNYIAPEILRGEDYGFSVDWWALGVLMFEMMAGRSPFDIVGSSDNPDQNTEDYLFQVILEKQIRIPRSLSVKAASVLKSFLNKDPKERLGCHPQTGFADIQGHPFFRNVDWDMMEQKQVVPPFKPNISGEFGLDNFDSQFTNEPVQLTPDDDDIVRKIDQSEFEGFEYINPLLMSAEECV

[17] = molecular target: PRKCQ (human) (UniProt Q04759); conditions: compound 10.0 µM
[18] = molecular target: PRKX (human) (UniProt P51817); conditions: compound 10.0 µM
PRKX (human), sequence (P51817 whole entry, looked up): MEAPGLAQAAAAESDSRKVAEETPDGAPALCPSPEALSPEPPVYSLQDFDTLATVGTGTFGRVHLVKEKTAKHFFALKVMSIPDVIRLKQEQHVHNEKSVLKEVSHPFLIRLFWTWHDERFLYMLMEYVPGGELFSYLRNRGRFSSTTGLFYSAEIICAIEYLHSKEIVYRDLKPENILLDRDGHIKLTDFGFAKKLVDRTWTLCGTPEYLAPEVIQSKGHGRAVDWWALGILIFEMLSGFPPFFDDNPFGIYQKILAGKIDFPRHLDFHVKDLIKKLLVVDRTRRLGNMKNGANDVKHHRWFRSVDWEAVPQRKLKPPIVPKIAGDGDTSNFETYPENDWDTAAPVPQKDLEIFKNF

[19] = molecular target: RPS6KA1 KD1 (human) (UniProt Q15418); conditions: compound 10.0 µM
[20] = molecular target: RPS6KA2 KD1 (human) (UniProt Q15349); conditions: compound 10.0 µM
RPS6KA2 KD1 (human), sequence (Q15349 whole entry, looked up): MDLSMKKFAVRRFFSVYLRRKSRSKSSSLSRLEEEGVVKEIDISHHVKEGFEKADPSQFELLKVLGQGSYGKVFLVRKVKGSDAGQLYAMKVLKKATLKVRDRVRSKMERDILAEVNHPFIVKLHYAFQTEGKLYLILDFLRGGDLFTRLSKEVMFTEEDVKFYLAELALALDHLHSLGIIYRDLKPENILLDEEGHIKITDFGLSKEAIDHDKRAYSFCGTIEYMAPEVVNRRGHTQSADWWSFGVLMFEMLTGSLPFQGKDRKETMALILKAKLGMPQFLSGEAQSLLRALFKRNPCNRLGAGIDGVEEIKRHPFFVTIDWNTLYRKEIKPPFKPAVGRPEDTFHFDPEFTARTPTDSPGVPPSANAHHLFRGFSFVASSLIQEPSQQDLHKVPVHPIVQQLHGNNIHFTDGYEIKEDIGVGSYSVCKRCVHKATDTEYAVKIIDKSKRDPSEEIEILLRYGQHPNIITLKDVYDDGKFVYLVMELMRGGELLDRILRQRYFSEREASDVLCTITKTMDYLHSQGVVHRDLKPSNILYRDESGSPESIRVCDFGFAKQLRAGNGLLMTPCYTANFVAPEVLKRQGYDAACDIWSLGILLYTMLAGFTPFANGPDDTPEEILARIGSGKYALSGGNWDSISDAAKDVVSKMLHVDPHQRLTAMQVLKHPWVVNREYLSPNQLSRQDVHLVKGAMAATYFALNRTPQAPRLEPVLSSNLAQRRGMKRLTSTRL

[21] = molecular target: RPS6KA3 KD1 (human) (UniProt P51812); conditions: compound 10.0 µM
[22] = molecular target: RPS6KA4 KD1 (human) (UniProt O75676); conditions: compound 10.0 µM
RPS6KA4 KD1 (human), sequence (O75676 whole entry, looked up): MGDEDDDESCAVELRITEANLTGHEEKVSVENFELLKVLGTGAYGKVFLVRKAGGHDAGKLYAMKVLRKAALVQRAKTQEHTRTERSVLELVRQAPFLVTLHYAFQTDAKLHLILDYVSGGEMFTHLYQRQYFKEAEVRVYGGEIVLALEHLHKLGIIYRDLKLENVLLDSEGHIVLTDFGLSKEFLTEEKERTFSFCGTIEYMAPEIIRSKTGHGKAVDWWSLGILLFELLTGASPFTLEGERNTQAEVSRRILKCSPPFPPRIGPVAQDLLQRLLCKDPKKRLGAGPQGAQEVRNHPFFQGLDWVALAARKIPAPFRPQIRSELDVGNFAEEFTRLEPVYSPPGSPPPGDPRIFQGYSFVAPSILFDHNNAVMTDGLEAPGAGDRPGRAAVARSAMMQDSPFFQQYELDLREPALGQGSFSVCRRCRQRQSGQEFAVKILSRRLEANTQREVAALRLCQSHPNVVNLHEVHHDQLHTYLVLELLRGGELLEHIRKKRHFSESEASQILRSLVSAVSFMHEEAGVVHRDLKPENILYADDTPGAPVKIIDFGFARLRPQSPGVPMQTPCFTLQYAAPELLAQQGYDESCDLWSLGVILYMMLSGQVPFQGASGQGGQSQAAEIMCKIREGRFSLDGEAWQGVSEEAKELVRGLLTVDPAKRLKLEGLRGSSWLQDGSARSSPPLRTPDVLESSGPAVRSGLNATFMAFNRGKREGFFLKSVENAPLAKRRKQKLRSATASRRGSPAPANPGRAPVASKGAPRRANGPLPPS

[23] = molecular target: RPS6KA5 KD1 (human) (UniProt O75582); conditions: compound 10.0 µM
[24] = molecular target: RPS6KA6 KD1 (human) (UniProt Q9UK32); conditions: compound 10.0 µM
[25] = molecular target: SGK2 (human) (UniProt Q9HBY8); conditions: compound 10.0 µM
[26] = molecular target: SGK3 (human) (UniProt Q96BR1); conditions: compound 10.0 µM
SGK3 (human), sequence (Q96BR1 whole entry, looked up): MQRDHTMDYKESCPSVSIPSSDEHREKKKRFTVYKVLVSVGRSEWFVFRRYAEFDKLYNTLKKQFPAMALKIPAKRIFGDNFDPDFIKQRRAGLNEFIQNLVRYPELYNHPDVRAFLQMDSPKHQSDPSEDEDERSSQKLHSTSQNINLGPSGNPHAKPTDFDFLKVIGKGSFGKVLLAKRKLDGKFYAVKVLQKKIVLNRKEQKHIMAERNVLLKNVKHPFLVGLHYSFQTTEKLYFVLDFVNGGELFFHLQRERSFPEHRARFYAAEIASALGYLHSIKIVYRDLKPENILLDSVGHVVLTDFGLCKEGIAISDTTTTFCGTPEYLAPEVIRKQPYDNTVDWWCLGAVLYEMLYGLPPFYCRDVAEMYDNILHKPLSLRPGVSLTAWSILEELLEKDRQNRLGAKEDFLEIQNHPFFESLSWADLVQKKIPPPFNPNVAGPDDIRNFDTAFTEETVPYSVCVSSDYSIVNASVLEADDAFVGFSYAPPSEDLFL

[27] = molecular target: STK32B (human) (UniProt Q9NY57); conditions: compound 10.0 µM

AKT1 (human), sequence (P31749 whole entry, looked up): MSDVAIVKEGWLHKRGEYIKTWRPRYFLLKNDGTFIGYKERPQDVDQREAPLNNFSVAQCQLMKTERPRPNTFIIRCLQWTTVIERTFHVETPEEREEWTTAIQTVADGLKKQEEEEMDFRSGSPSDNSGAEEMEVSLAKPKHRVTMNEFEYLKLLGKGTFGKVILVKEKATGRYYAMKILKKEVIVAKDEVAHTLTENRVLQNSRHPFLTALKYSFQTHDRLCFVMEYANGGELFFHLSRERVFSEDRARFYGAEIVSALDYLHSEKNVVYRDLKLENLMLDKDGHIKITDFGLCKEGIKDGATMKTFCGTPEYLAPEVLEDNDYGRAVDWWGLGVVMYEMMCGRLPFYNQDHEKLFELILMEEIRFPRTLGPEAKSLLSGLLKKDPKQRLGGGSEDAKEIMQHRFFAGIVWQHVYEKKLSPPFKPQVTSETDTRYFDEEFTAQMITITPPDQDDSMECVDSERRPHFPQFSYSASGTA

inhibition [1] [%]	inhibition [2] [%]	inhibition [3] [%]	inhibition [4] [%]	inhibition [5] [%]	inhibition [6] [%]	inhibition [7] [%]	inhibition [8] [%]	inhibition [9] [%]	inhibition [10] [%]	inhibition [11] [%]	inhibition [12] [%]	inhibition [13] [%]	inhibition [14] [%]	inhibition [15] [%]	inhibition [16] [%]	inhibition [17] [%]	inhibition [18] [%]	inhibition [19] [%]	inhibition [20] [%]	Structure (SMILES)	also measured
18	0	0	0	12	17	27	0	0	32	21	0	14	5	8	0	31	9	24	10	CC(C)(C)n1nc(-c2cccc3ccccc23)c2c(N)ncnc21	inhibition [21]: 30%; inhibition [22]: 0%; inhibition [23]: 0%; inhibition [24]: 4%; inhibition [25]: 0%; inhibition [26]: 0%; inhibition [27]: 66%
0	0	0	0	0	0	0	0	0	4	0	0	12	0	0	0	0	0	0	0	Cc1ccccc1C(=O)c1ccc(Nc2ccc(Br)cc2N)cc1Cl	inhibition [21]: 0%; inhibition [22]: 0%; inhibition [23]: 0%; inhibition [24]: 0%; inhibition [25]: 0%; inhibition [26]: 0%; inhibition [27]: 0%
1	0	0	12	0	28	6	0	1	5	0	15	0	0	0	0	35	8	19	2	CN1CC[C@H](c2c(O)cc(O)c3c(=O)cc(-c4ccccc4Cl)oc23)[C@H](O)C1	inhibition [21]: 8%; inhibition [22]: 23%; inhibition [23]: 16%; inhibition [24]: 2%; inhibition [25]: 0%; inhibition [26]: 0%; inhibition [27]: 11%
0	0	0	0	14	5	0	0	6	19	0	0	0	0	0	37	15	53	0	0	O=S(=O)(c1cccc2c(O)nccc12)N1CCCNCC1	inhibition [21]: 0%; inhibition [22]: 0%; inhibition [23]: 0%; inhibition [24]: 0%; inhibition [25]: 0%; inhibition [26]: 0%; inhibition [27]: 0%

Continued, compound first:

Structure (SMILES)	inhibition [1] [%]	inhibition [2] [%]	inhibition [3] [%]	inhibition [4] [%]	inhibition [5] [%]	inhibition [6] [%]	inhibition [7] [%]	inhibition [8] [%]	inhibition [9] [%]	inhibition [10] [%]	inhibition [11] [%]	inhibition [12] [%]	inhibition [13] [%]	inhibition [14] [%]	inhibition [15] [%]	inhibition [16] [%]	inhibition [17] [%]	inhibition [18] [%]	inhibition [19] [%]	inhibition [20] [%]	also measured
CC(C)(C)n1nc(-c2ccc(Cl)cc2)c2c(N)ncnc21	0	0	0	0	0	6	26	0	0	30	8	0	0	0	4	0	0	0	7	4	inhibition [21]: 6%; inhibition [22]: 0%; inhibition [23]: 1%; inhibition [24]: 7%; inhibition [25]: 0%; inhibition [26]: 0%; inhibition [27]: 43%
c1ccc(-c2n[nH]cc2-c2ccnc3ccccc23)nc1	0	0	0	0	25	6	3	0	7	1	0	0	5	4	0	0	1	5	0	0	inhibition [21]: 0%; inhibition [22]: 0%; inhibition [23]: 0%; inhibition [24]: 0%; inhibition [25]: 0%; inhibition [26]: 0%; inhibition [27]: 8%
N#C/C(=C(/N)Sc1ccc(N)cc1)c1ccccc1C(F)(F)F	0	0	0	0	1	0	0	0	6	2	0	1	0	0	0	0	0	11	0	0	inhibition [21]: 0%; inhibition [22]: 0%; inhibition [23]: 0%; inhibition [24]: 0%; inhibition [25]: 0%; inhibition [26]: 4%; inhibition [27]: 0%
O=C(Nc1cc(C(F)(F)F)cc(C(F)(F)F)c1)c1cc(Cl)ccc1O	0	0	0	0	9	0	3	0	0	0	1	0	11	6	8	0	2	4	1	0	inhibition [21]: 0%; inhibition [22]: 0%; inhibition [23]: 0%; inhibition [24]: 0%; inhibition [25]: 0%; inhibition [26]: 1%; inhibition [27]: 11%
CN1CCC(Nc2ncc3ncnc(Nc4ccc(F)c(Cl)c4)c3n2)CC1	0	0	0	0	8	10	3	0	3	6	0	0	0	0	0	0	0	6	0	4	inhibition [21]: 0%; inhibition [22]: 0%; inhibition [23]: 0%; inhibition [24]: 0%; inhibition [25]: 0%; inhibition [26]: 0%; inhibition [27]: 0%
